Assay results as given in PubChem BioAssay AID588480 (Broad Institute, 2011).
Where “and” joins values, the source holds several entries; their conditions need not be identical. Equal values may be shown once. Inconclusive results are not listed. Calls of active or inactive are those of the source.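 How the source made its calls: active means compounds whose fitted half-maximal concentration stays within ten times the top tested dose in every test run; inconclusive means runs disagree, or a flat partial drop or poor fit; inactive means every run inactive, including flat curves and signal rises.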

Target: Serine/threonine-protein kinase 33 (Homo sapiens) (UniProt Q9BYT3)
Sequence (Q9BYT3 whole entry, looked up): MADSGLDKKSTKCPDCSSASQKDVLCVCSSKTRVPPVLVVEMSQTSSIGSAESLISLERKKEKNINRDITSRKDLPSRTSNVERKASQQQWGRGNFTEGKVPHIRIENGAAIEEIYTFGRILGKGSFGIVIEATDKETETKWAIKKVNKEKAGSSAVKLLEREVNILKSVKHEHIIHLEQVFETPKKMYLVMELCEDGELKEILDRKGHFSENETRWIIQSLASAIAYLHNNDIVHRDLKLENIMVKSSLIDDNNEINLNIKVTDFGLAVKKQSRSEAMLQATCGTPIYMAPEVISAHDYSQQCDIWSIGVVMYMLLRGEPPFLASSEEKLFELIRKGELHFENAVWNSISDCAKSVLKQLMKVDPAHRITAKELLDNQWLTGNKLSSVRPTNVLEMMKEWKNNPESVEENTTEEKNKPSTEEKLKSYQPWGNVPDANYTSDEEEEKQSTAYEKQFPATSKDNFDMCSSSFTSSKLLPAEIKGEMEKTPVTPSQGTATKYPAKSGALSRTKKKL
Test: STK33 kinase inhibitors, potency, dose response, biochemical, ADP-Glo luminescence, dry powder, set 2 (AID 588480)
Conditions: purified STK33, MBP phosphorylation; for activity change, negative = inhibition: at 10 µM (top of the series)

SMILES	activity change, negative = inhibition	AC50
COc1ccccc1N=C1NC(=O)/C(=C/c2cccc(Cl)c2)S1	inactive	
COc1ccccc1N=C1NC(=O)CS1	inactive	
COc1ccc(/C=C2\SC(=Nc3ccccc3OC)NC2=O)cc1		2250 nM
COc1ccccc1/C=C1\SC(=Nc2ccccc2OC)NC1=O	inactive	
O=C(Nc1ccccc1-c1nc2ccccc2[nH]c1=O)c1cccs1		285 nM and 308 nM
O=C(Nc1ccccc1-c1nc2ccccc2[nH]c1=O)C1CCCCC1	inactive	
O=C(Nc1ccccc1-c1nc2ccccc2[nH]c1=O)c1cccnc1		582 nM
COc1ccccc1N=C1NC(=O)/C(=C/c2cc(C)on2)S1	inactive	
COc1ccccc1N=C1NC(=O)/C(=C/c2ccc3c(c2)OCO3)S1		5410 nM
COc1cc(/C=C2\SC(=Nc3ccccc3OC)NC2=O)ccc1F		9910 nM
COc1ccccc1N=C1NC(=O)/C(=C/c2cccn2C)S1	inactive	
Nc1ccccc1-c1nc2ccccc2[nH]c1=O	inactive	
COc1cc(/C=C2\SC(N)=NC2=O)ccc1O		466 nM
COc1ccc(C(=O)Nc2ccccc2-c2nc3ccccc3[nH]c2=O)cc1		977 nM

Other lines, results leading:

activity change, negative = inhibition	AC50	SMILES
	245 nM	O=C1NC(=NCc2ccccc2)S/C1=C/c1ccc(O)cc1
inactive		COc1ccccc1N=C1NC(=O)/C(=C/C2CCCCC2)S1
inactive		COc1ccccc1N=C1NC(=O)/C(=C/c2cccc(F)c2)S1
	709 nM	O=C(Nc1ccccc1-c1nc2ccccc2[nH]c1=O)c1cccc(Cl)c1
	76 nM	O=C(Nc1ccccc1-c1nc2ccccc2[nH]c1=O)c1ccccn1
inactive		COc1ccccc1N=C1NC(=O)/C(=C/c2ccc(OC(F)(F)F)cc2)S1
	152 nM	O=C(Nc1ccccc1-c1nc2ccccc2[nH]c1=O)c1ccc(F)cc1
	7690 nM	O=C(Nc1ccccc1-c1nc2ccccc2[nH]c1=O)c1ccncc1
	2430 nM	O=C(Nc1ccccc1-c1nc2ccccc2[nH]c1=O)c1cccc(F)c1
	1280 nM	COc1ccccc1N=C1NC(=O)/C(=C/c2ccc3c(c2)OCCO3)S1
inactive		COc1ccccc1Nc1nc(O)c(/C=C2/C=c3ccccc3=N2)s1
inactive		COc1ccccc1N=C1NC(=O)/C(=C/c2ccccn2)S1
inactive		COc1ccccc1N=C1NC(=O)/C(=C/C(C)C)S1
	8510 nM	O=C(Nc1ccccc1-c1nc2ccccc2[nH]c1=O)c1cc2ccccc2s1
inactive		O=c1[nH]c2ccccc2nc1-c1ccccc1NCc1cccs1
	250 nM and 321 nM	COc1cc(/C=C2\SC(=Nc3ccccc3OC)NC2=O)ccc1O
	911 nM	COc1ccccc1N=C1NC(=O)/C(=C/c2ccc(O)cc2)S1
